Literature values as cited in patent US5431925A, “Nutritive composition for prevention and therapy of infection diseases caused by immunosuppression” (Snow Brand Milk Products Co., Ltd., priority 1991, dated 1995).

Details: mouse

CC1=C(/C=C/C(C)=C/C=C/C(C)=C/C(=O)O)C(C)(C)CCC1 [retinoic acid]
LD50: ≥ 4,000 mg/kg

CC1=C(/C=C/C(C)=C/C=C/C(C)=C/CO)C(C)(C)CCC1 [retinol]
LD50: ≥ 4,100 mg/kg
